Here are results for 6 molecules from paper PMC6514962, “The Impact of O-Glycosylation on Cyanidin Interaction with RBCs and HMEC-1 Cells—Structure–Activity Relationships” (International Journal of Molecular Sciences, 2019).

A word on the viability: it is the share of living cells, or the viability signal relative to a control.

Data set [1] concerns HMEC-1 cells. Put plainly: AAPH-stimulated intracellular ROS generation, H2DCF-DA assay. Particulars: for inhibitory activity on AAPH-induced intracellular ROS: HMEC-1, throughout the used range of concentrations (50-100 µM); for intracellular ROS level in comparison with control AAPH-oxidized cells: HMEC-1 pretreated 24 h with 50 to 75 µM, then AAPH 24 h. The class given is cell-based, human. As to the method: (§1) The impact of investigated compounds on the level of intracellular reactive oxygen species and their ability to inhibit AAPH-stimulated intracellular ROS generation were assessed using a H2DCF-DA probe. Non-fluorescent H2DCF-DA is hydrolyzed intracellularly to form 2′,7′-dichlorodihydrofluorescein, which is oxidized by reactive oxygen species to the fluorescent 2′,7′-dichlorofluorescein. ROS production was estimated in HMEC-1 cells seeded on 96-well plates (5 × 10^3/well) and cultured for 12 to 24 h. After that time, the compounds were added at appropriate concentrations. The incubation was continued for another 24 h and 48 h at 37 °C under 5% CO2. In the case of AAPH-simulated ROS generation, the cells were incubated with extracts for 24 h. After incubation, the AAPH dissolved in culture medium was added to each well at the final concentration of 7.5 mM and incubated for the next 24 h. After that time, the cell monolayers were rinsed with HBSS containing 1% albumin and 5 µM of the fluorescence probe, 2′,7′-dichlorodihydrofluorescein diacetate (H2DCF-DA), was added. Immediately and after 0.5 h, 1 h, and 2 h incubation in the dark in standard conditions, the fluorescence was measured at λex = 485 nm and λem = 538 nm.
(§2) In the next step, DNA content was determined. For this purpose, after measurements, the cells were frozen at −70 °C. Next, the cells were thawed and re-frozen after the addition of […] of distilled water/well. Then, the cells were thawed again. After that, 5 µM of RNase was added to each well and incubated for 30 min in the dark at 37 °C. Next, 50 µL of 2.5 µM propidium iodide was added to the cells and incubated for 5 min in the same conditions. The fluorescence intensity of PI was measured at λex = 355 nm and λem = 620 nm. The rate of ROS generation was calculated according to the formula: (1) Rate of ROS=IFe1/IFe2/IFc1/IFc2⋅100% where IFe1 and IFe2 are fluorescence intensities of H2DCF-DA and PI in compound-modified or compound-modified and AAPH-oxidized cells, and IFc1 and IFc2 are fluorescence intensities of H2DCF-DA and PI in control or AAPH-oxidized control cells.

Data set [2] concerns erythrocytes (RBCs). The experiment in a line: SEM assay of the shapes of erythrocytes. The class given is cell-based, pig. Particulars: 100 µM, 1 h. Here is the method:
The effect of compounds on the shape of erythrocytes was investigated using a scanning electron microscope (SEM). […] Hematocrit concentration of the erythrocytes in the modification solution was 2%, the modification lasting 1 h at 37 °C. After modification, the erythrocytes where fixed for 48 h in a 2.5% solution of glutaraldehyde. After that, the preparations were washed in phosphate buffer for 20 min, and then the material was dehydrated in a rising series of acetone concentrations (30%, 50%, 60%, 70%, 80%, 90%, and 100%). Each sample was washed for 15 min in an appropriate concentration, the material remaining in pure acetone for 30 min. Next, the erythrocytes were dried for 12 h at room temperature. Erythrocytes thus prepared were deposited on object stages and subjected to x-ray microanalysis by means of an x-ray analyzer, Bruker AXS Quantax, collaborating with the ESPRIT ver. 1.8.2. software. Next, the samples were coated with gold using a Scancoat 6 (Edwards, London) sprinkler. The material ultrastructure was analyzed using a scanning microscope (EVO LS15 ZEISS) with an SE1 detector, under high vacuum and accelerating voltage, acceleration voltage (EHT) = 20 kV. Individual forms of erythrocyte cells were ascribed morphological indices according to the Bessis scale, which for stomatocytes assume negative values from −1 to −4, and for echinocytes from 1 to 4.

Data set [3] concerns MCF-7, HuH-7, HepG2, Caco-2, and HUVEC. Also on record: method as in doi:10.3136/fstr.17.515. Particulars: cited from earlier work.
Data set [4] relates to renal cell carcinoma. Set-up: method as in PMID 29742507. As to conditions: cited from earlier work.
Data set [5] has as its system MCF-7 breast cancer cells. As to conditions: cited from earlier work.
For data set [6], the system named is HMEC-1 cells. Put plainly: intracellular ROS generation in non-oxidized cells, H2DCF-DA assay. The class given is cell-based, human. Particulars: 50-100 µM. Here is the method:
as §1, §2

Data set [7] is described as follows: viability of HMEC-1 cells, XTT and Hoechst 33342 assays. The class given is cell-based, human. As to conditions: human, HMEC-1 cells, HMEC-1, 100 µM, % of control, read-out: cell viability (XTT and Hoechst assay). Here is the method: (§3) The effect of compounds on the viability of HMEC-1 cells was assessed by XTT (2,3-bis-(2-methoxy-4-nitro-5-sulfophenyl)-2H-tetrazolium-5-carboxanilide) and Hoechst 33342 assays. Briefly, 5 × 10^3 cells in 100 µL of the appropriate growth medium were plated in 96-well flat bottom clear microplates and cultured for 24 h at 37 °C in a humidified 5% CO2 incubator to ensure their logarithmic growth. […] A corresponding volume of 0.5% ethanol was added to the control wells. In parallel experiments, some of the cells were additionally incubated with doxorubicin in a concentration of 0.5 µM (a cytotoxic compound usually used as an anticancer drug). After incubation, the medium in the wells was aspirated, the cell monolayers were rinsed twice with pre-warmed (37 °C) PBS, and the cells were allowed to grow for an additional 48 h. After incubation, during the XTT assay, medium was removed by aspiration and 50 µL of XTT/PMS solution (10 µL of 10 mM PMS + 4 mL of 4 mg/mL XTT solution) was added to cells. Cells were incubated in the dark for 2 h (37 °C, 5% CO2). After incubation, the absorbance of the samples was read at 450 nm and 690 nm using an Epoch Microplate Spectrophotometer, BioTek Instruments, Inc., Winooski, Vermont, USA. The fraction of surviving treated cells was presented as a percentage of viable control (untreated) cells taken as 100%. In the Hoechst test, after incubation of cells with cyanidin and its glycosides, the medium was removed and the cells were washed twice with HBSS buffer containing 1% bovine serum albumin and frozen at −70 °C. Next, the cells were thawed at room temperature (RT) and re-frozen after the addition of […] of distilled water. After thawing the plates at room temperature, 100 µL of HVAB solution (0.5% Hoechst in TNE solution containing 2 M NaCl, 1 mM EDTA, 10 mM Tris-HCl, pH 7.4) were added to each well. Next, cells were incubated for 15 min in the dark at 37 °C, mixed, and the fluorescence intensity of the probe was measured at 355 and 460 nm for excitation and emission, respectively (Fluoroskan Ascent FL, Thermo Scientific, Waltham, MA, USA). Cell viability was calculated as the ratio of the fluorescence intensity of the Hoechst 33342 probe for compound-modified to -unmodified cells and expressed as a percentage.
(Tetrazolium dyes change colour on reduction, which living cells bring about.)

Data set [8] concerns HMEC-1 cells. Described as above. The class given is cell-based, human. Particulars: 48 h; for viability of endothelial cells compared with the control: HMEC-1, 100 µM, p < 0.01, both methods; for cytotoxicity: HMEC-1, 10-100 µM. As to the method: as §3
The subject of data set [9] is erythrocytes (RBCs). The experiment in a line: protection of erythrocytes against AAPH-induced hemolysis. The class given is cell-based, pig. Here is the method:
Upon removal from plasma, the erythrocytes (RBCs) were washed four times in phosphate solution (pH 7.4) and then incubated in the same solution, but containing appropriate amounts of the compounds studied. The modification was conducted at 37 °C for 1 h, each 1 mL sample containing an RBC suspension of 1.2% hematocrit and 1 to 100 µM of compounds, stirred continuously. After the modification, 2 mL of phosphate buffer were added and samples were centrifuged, and the supernatant assayed for hemoglobin content using a spectrophotometer (Specord 40, Analytik Jena) at the 540 nm wavelength. To test the effect of compounds on hemolysis inducted by AAPH, RBCs were pre-incubated with varying concentrations of compounds at 37 °C for 1 h. Hemolysis of RBCs was carried out by mixing 3% suspension of RBCs (unmodified or modified by 2 to 20 µM of the compounds) in phosphate buffer with AAPH solution (final concentration 120 mM). This reaction mixture was incubated for 3 h at 37 °C. After incubation, samples were centrifuged for 15 min (2000× g, RT). The extent of hemolysis was determined spectrophotometrically by measuring the absorbance of the supernatant at 540 nm. Hemoglobin concentration in the supernatant, expressed as a percentage of the hemoglobin concentration in the supernatant of totally hemolyzed cells, was assumed as the measure of the extent of hemolysis.

Data set [10] relates to human peripheral blood mononuclear cells. Also on record: method as in PMID 17360708. Particulars: cited from earlier work.
Data set [11] has as its system RAW 264.7 cells. Set-up: method as in doi:10.1007/s10068-014-0279-x. Particulars: 100 to 200 µg/mL; cited from earlier work.
Data set [12] concerns HL-60 cells. Also on record: method as in PMID 17360708. As to conditions: by the accumulation of peroxides; cited from earlier work.

As to `CC(C)(N=NC(C)(C)C(=N)N)C(=N)N.Cl.Cl` [AAPH, 2,2′-azobis(2-amidinopropane) dihydrochloride, reference compound], the “increase in the ROS level” value in data set [1] (HMEC-1, 24 h incubation with AAPH (7.5 mM), 37 °C) is given as “about 60%”.
Consider `Oc1cc(O)c2cc(O)c(-c3ccc(O)c(O)c3)[o+]c2c1` [C, Cyanidin], for which the “morphological index of induced echinocytes (Bessis scale)” value (from here on “morphological index”) in data set [2] was “+4”. In addition, the “intracellular ROS levels” value in data set [3] is listed as “decreased”. In addition, the “percentage of apoptotic cells” value in data set [4] (48 h at 0, 25, 50, and 100 μM) was “gradually increased”. Moreover, the cell cycle arrest result in data set [4] (independently of the concentration) is listed as “induced cell cycle arrest”. In addition, the “cell proliferation and apoptosis” value in data set [5] was “inhibition of cell proliferation and increased apoptosis”. The “inhibitory activity on AAPH-induced intracellular ROS” value (“inhibitory activity” for short) in [1] is given as “does not cause any inhibitory activity”. For the same molecule, the “intracellular ROS level compared with control cells” value in data set [6] (HMEC-1, 24 h) is on record as “significant decrease”; in [6] (HMEC-1, 48 h), “decreased”. The viability at 48 h, 100 µM in data set [7] lay within 65 to 80%. Moreover, the “viability of endothelial cells compared with the control” value in [8] is recorded as “decreased the viability”. For the same molecule, the “antioxidant activity compared with CG, CA, and CGA” value in data set [9] was “did not observe any significant differences”.
Turning to `Oc1cc(O)c2cc(OC3OCC(O)C(O)C3O)c(-c3ccc(O)c(O)c3)[o+]c2c1` (centres unmarked) [CA, cyanidin-3-O-arabinoside], the “morphological index” value in data set [2] is given as “+2”. In data set [1], the “intracellular ROS level in comparison with control AAPH-oxidized cells” value is on record as “significant decrease”. The “intracellular ROS level compared with control cells” value in data set [6] (HMEC-1, 24 h) is “significant decrease”; in data set [6] (HMEC-1, 48 h), “decreased”. Further, the viability at 48 h, 100 µM in data set [7] was 60 to 85%. For the same molecule, the “viability of endothelial cells compared with the control” value in data set [8] is “decreased the viability”. Besides, in [9] (compared with CR and CDG), the “level of RBCs' protection relative to CR and CDG” value is recorded as “better protection”.
For the molecule `OCC1OC(Oc2cc3c(OC4OC(CO)C(O)C(O)C4O)cc(O)cc3[o+]c2-c2ccc(O)c(O)c2)C(O)C(O)C1O` (centres unmarked) [CDG, cyanidin-3-5-O-diglucoside], the “morphological index” value in data set [2] is listed as “+1”. Besides, the “protective effect against AAPH-induced oxidative stress” value in [1] (HMEC-1, 100 µM) is listed as “protective effect”. Besides, the “inhibitory activity” value in data set [1] is “strong inhibitory action”. Further, in data set [1], the “intracellular ROS level in comparison with control AAPH-oxidized cells” value is given as “significant decrease”. For the same molecule, the “intracellular ROS level compared with control cells” value in [6] (HMEC-1, 24 h) is reported as “significant decrease”; in data set [6] (HMEC-1, 48 h), “decreased”. For the same molecule, the cytotoxicity entry in [8] is “no cytotoxicity”.
With `OCC1OC(Oc2cc3c(O)cc(O)cc3[o+]c2-c2ccc(O)c(O)c2)C(O)C(O)C1O` (centres unmarked) [CGA, cyanidin-3-O-galactoside], the “intracellular ROS level compared with control cells” value in [6] (HMEC-1, 48 h) was “decreased”.
On to `CC1OC(OCC2OC(Oc3cc4c(O)cc(O)cc4[o+]c3-c3ccc(O)c(O)c3)C(O)C(O)C2O)C(O)C(O)C1O` (centres unmarked) [CR, cyanidin-3-O-rutinoside], for which the “morphological index” value in data set [2] was “+1”. The toxicity result in data set [10] is “relatively low toxicity”. The “cell viability compared with control cells” value in data set [11] was “significantly decreased”. In addition, the “inhibitory activity” value in [1] is on record as “does not cause any inhibitory activity”. The “intracellular ROS level compared with control cells” value in [6] (HMEC-1, 24 h) is listed as “did not differ”; in [6] (HMEC-1, 48 h), “no significant difference”. Also, the cytotoxicity result in [8] is “no cytotoxicity”. In addition, in [12], the apoptosis result is listed as “induce apoptosis”.
